This passage reports TGI results from PubChem BioAssay (NCI).

Some test systems named below: SF-268 CNS; MDA-MB-435; K-562 leukemia; SK-OV-3 ovarian; HS 578T breast; SK-MEL-5 melanoma; UACC-62 melanoma; HOP-62 NSCLC; SR leukemia; NCI-H226 lung; MCF7 breast; MOLT-4 leukemia; A498 renal; PC-3 prostate; COLO 205 colon; OVCAR-8 ovarian; SNB-75 CNS.
What all share (test): NCI-60 cell line screen, 48 h

SMILES strings stand for the structures.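 Cultured in 96-well plates, cells were exposed to test compound for 48 hours across five concentrations. TGI is the concentration that stops growth completely.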 Bounds are passed on as bounds.

Turning to `CC(=O)OCc1nc(C#N)c(N)o1`, the TGI in the assay on SF-268 CNS, with MDA-MB-435, in the assay on K-562 leukemia, in the assay on SK-OV-3 ovarian, in the assay on HS 578T breast and in the assay with SK-MEL-5 melanoma was greater than 100 µM each time. In addition, the TGI in the assay on UACC-62 melanoma, in the assay on HOP-62 NSCLC, in the assay on SR leukemia, in the assay with NCI-H226 lung, in the assay on MCF7 breast and in the assay with MOLT-4 leukemia was greater than 100 µM throughout. Moreover, the TGI in the assay on A498 renal, with PC-3 prostate and with COLO 205 colon was greater than 100 µM throughout.

For the compound `CC(=O)N1NC(c2ccccc2)=CC(=O)/C1=C/C(=O)c1ccccc1`, the TGI in the assay on SF-268 CNS was 99.3 µM; in the assay with MDA-MB-435 it was 43.1 µM; in the assay on K-562 leukemia, greater than 100 µM; in the assay with SK-OV-3 ovarian it was greater than 100 µM; in the assay on HS 578T breast, greater than 100 µM; with SK-MEL-5 melanoma it was greater than 100 µM. Moreover, the TGI in the assay on UACC-62 melanoma is greater than 100 µM; in the assay on HOP-62 NSCLC, greater than 100 µM; in the assay on SR leukemia, 57.8 µM; in the assay with NCI-H226 lung, greater than 100 µM; in the assay with MCF7 breast, greater than 100 µM; in the assay with MOLT-4 leukemia, greater than 100 µM. The TGI in the assay on A498 renal, with PC-3 prostate, in the assay with COLO 205 colon and in the assay on OVCAR-8 ovarian was greater than 100 µM in each case.

`CCOC(=O)/C(C#N)=C(/NS(=O)(=O)c1cc(C)c(Cl)cc1[S-])[n+]1ccc(N(C)C)cc1`: the TGI in the assay on SF-268 CNS, in the assay on MDA-MB-435, in the assay on K-562 leukemia, with SK-OV-3 ovarian, in the assay with HS 578T breast and in the assay with SK-MEL-5 melanoma was greater than 100 µM throughout. Also, the TGI in the assay on UACC-62 melanoma, in the assay with HOP-62 NSCLC, with SR leukemia, with NCI-H226 lung, with MCF7 breast and in the assay on MOLT-4 leukemia was greater than 100 µM throughout. Further, the TGI in the assay with A498 renal, in the assay on PC-3 prostate, in the assay with COLO 205 colon and in the assay on OVCAR-8 ovarian was greater than 100 µM throughout.

With `COc1ccc(-c2oc3c(CC(=O)O)cccc3c(=O)c2OC)cc1`, the TGI in the assay on SF-268 CNS, in the assay with MDA-MB-435, in the assay with K-562 leukemia, with SK-OV-3 ovarian, in the assay on HS 578T breast and with SK-MEL-5 melanoma was greater than 100 µM in each case. The TGI with UACC-62 melanoma, with HOP-62 NSCLC, with SR leukemia, with NCI-H226 lung, in the assay on MCF7 breast and in the assay with MOLT-4 leukemia was greater than 100 µM each time. In addition, the TGI in the assay with A498 renal, in the assay with PC-3 prostate, in the assay with COLO 205 colon and with OVCAR-8 ovarian was greater than 100 µM each time.

For the compound `NCCCNc1ccc2c(c1)[n+]([O-])c1ccccc1[n+]2[O-]`, the TGI with SF-268 CNS is greater than 100 µM; in the assay on MDA-MB-435 it was greater than 100 µM; with K-562 leukemia, greater than 100 µM; in the assay on SK-OV-3 ovarian, 50.4 µM; in the assay on HS 578T breast, 60 µM; in the assay with SK-MEL-5 melanoma it was 31.8 µM. Besides, the TGI with UACC-62 melanoma was 49.2 µM; in the assay on HOP-62 NSCLC it was 93.5 µM; in the assay with SR leukemia, 61.4 µM; in the assay with NCI-H226 lung, 45.5 µM; with MCF7 breast, greater than 100 µM; in the assay with MOLT-4 leukemia, 67.2 µM. Also, the TGI with A498 renal is 47.8 µM; in the assay with PC-3 prostate it was greater than 100 µM; in the assay on COLO 205 colon it was 45.2 µM; with OVCAR-8 ovarian, greater than 100 µM.

Consider `CCOC(=O)Cc1ccc(Nc2nc3cc(C(F)(F)F)ccc3nc2C(=O)OCC)cc1`, for which the TGI is greater than 100 µM in the assay with SF-268 CNS; greater than 100 µM in the assay on MDA-MB-435; greater than 100 µM in the assay with SK-OV-3 ovarian; 85.1 µM with HS 578T breast; greater than 100 µM in the assay with SK-MEL-5 melanoma; greater than 100 µM with UACC-62 melanoma. The TGI in the assay with HOP-62 NSCLC was greater than 100 µM; in the assay with SR leukemia, greater than 100 µM; in the assay on NCI-H226 lung, 91.6 µM; in the assay on MCF7 breast, greater than 100 µM; in the assay with MOLT-4 leukemia, greater than 100 µM; in the assay on A498 renal it was greater than 100 µM. Further, the TGI in the assay on PC-3 prostate was greater than 100 µM; with COLO 205 colon, greater than 100 µM; in the assay on OVCAR-8 ovarian it was greater than 100 µM; in the assay with SNB-75 CNS, 48.2 µM.

As to `CNC(=O)Nc1cc2c3c(c1)CCCN3CCC2`, the TGI in the assay on SF-268 CNS, with MDA-MB-435, with K-562 leukemia, with SK-OV-3 ovarian, with HS 578T breast and in the assay with SK-MEL-5 melanoma was greater than 10 µM throughout. The TGI in the assay with UACC-62 melanoma, in the assay on HOP-62 NSCLC, in the assay on SR leukemia, in the assay with NCI-H226 lung, in the assay with MCF7 breast and with A498 renal was greater than 10 µM in each case. For the same compound, the TGI with PC-3 prostate, in the assay with COLO 205 colon, in the assay with OVCAR-8 ovarian and with SNB-75 CNS was greater than 10 µM each time.

As to `CCOC(=O)CSc1nc2ccccc2c(=O)n1N`, the TGI with SF-268 CNS, with MDA-MB-435, in the assay with K-562 leukemia, in the assay with HS 578T breast, with SK-MEL-5 melanoma and in the assay on UACC-62 melanoma was greater than 100 µM throughout. The TGI with SR leukemia, in the assay on NCI-H226 lung, in the assay on MCF7 breast, in the assay with MOLT-4 leukemia, with A498 renal and in the assay with PC-3 prostate was greater than 100 µM each time. For the same compound, the TGI in the assay with COLO 205 colon, with OVCAR-8 ovarian and in the assay on SNB-75 CNS was greater than 100 µM throughout.

Consider `O=C1CC2[C@@H](N3CCCC3)CCC(N1Cc1ccccc1)C2(O)O` (stereo partly specified), for which the TGI in the assay on SF-268 CNS, in the assay with MDA-MB-435, in the assay on K-562 leukemia, with SK-OV-3 ovarian, with HS 578T breast and with SK-MEL-5 melanoma was greater than 100 µM throughout. Further, the TGI in the assay on UACC-62 melanoma, with HOP-62 NSCLC, in the assay with SR leukemia, in the assay with NCI-H226 lung, in the assay with MCF7 breast and in the assay with MOLT-4 leukemia was greater than 100 µM throughout. In addition, the TGI with A498 renal, in the assay with PC-3 prostate, in the assay on COLO 205 colon and in the assay with OVCAR-8 ovarian was greater than 100 µM throughout.

In the case of `CCc1cc(-c2nsc(=O)o2)c(S(=O)(=O)CC)s1`, the TGI in the assay on SF-268 CNS, with MDA-MB-435, with K-562 leukemia, with SK-OV-3 ovarian, in the assay on HS 578T breast and in the assay on SK-MEL-5 melanoma was greater than 100 µM each time. Moreover, the TGI in the assay with HOP-62 NSCLC is greater than 100 µM; with SR leukemia, greater than 100 µM; with NCI-H226 lung it was greater than 100 µM; in the assay with MCF7 breast, greater than 100 µM; in the assay with A498 renal it was greater than 100 µM; in the assay with PC-3 prostate it was 85.1 µM. In addition, the TGI with COLO 205 colon, in the assay with OVCAR-8 ovarian and with SNB-75 CNS was greater than 100 µM each time.

`O=c1c2cccnc2[nH]c2ccc3scnc3c12`: the TGI in the assay on SF-268 CNS, with MDA-MB-435, with SK-OV-3 ovarian, with HS 578T breast, in the assay on SK-MEL-5 melanoma and in the assay on UACC-62 melanoma was greater than 10 µM throughout. Moreover, the TGI with HOP-62 NSCLC, in the assay with SR leukemia, in the assay with NCI-H226 lung, in the assay on MCF7 breast, with MOLT-4 leukemia and in the assay on A498 renal was greater than 10 µM each time. The TGI in the assay with PC-3 prostate, with COLO 205 colon, in the assay on OVCAR-8 ovarian and with SNB-75 CNS was greater than 10 µM in each case.

For the compound `COc1cc(-c2c[nH]c3ccccc23)nc(-c2c[nH]c3ccccc23)n1`, the TGI turned out to be 30.7 µM in the assay with SF-268 CNS; 18.6 µM in the assay with MDA-MB-435; 17.7 µM with K-562 leukemia; 22.8 µM with SK-OV-3 ovarian; 68 µM in the assay on HS 578T breast; 17.9 µM in the assay with SK-MEL-5 melanoma. The TGI in the assay with UACC-62 melanoma came to 18.6 µM; in the assay on HOP-62 NSCLC, 21 µM; in the assay on SR leukemia it was 22.1 µM; in the assay on MCF7 breast it was 14.9 µM; in the assay on MOLT-4 leukemia, 15.3 µM; with A498 renal, 6.58 µM. The TGI in the assay on PC-3 prostate was determined as 9.06 µM; in the assay with COLO 205 colon, 20.8 µM; in the assay with OVCAR-8 ovarian it was 19.3 µM; in the assay with SNB-75 CNS, 17.7 µM.

Turning to `COc1ccc(C)c2c1N[C@](C)([C@]1(C)Nc3c(OC)ccc(C)c3C1=O)C2=O`, the TGI in the assay on SF-268 CNS, with MDA-MB-435, in the assay on K-562 leukemia, in the assay with SK-OV-3 ovarian, in the assay with HS 578T breast and in the assay on SK-MEL-5 melanoma was greater than 100 µM in each case. Further, the TGI with UACC-62 melanoma, with HOP-62 NSCLC, with SR leukemia, in the assay on NCI-H226 lung, in the assay on MCF7 breast and with MOLT-4 leukemia was greater than 100 µM in each case. Besides, the TGI in the assay with A498 renal, with PC-3 prostate, in the assay on COLO 205 colon and in the assay on OVCAR-8 ovarian was greater than 100 µM throughout.

For the compound `CC1CCCOc2ccc(cc2)C=Nc2ccc(cc2)CCc2ccc(cc2)N=Cc2ccc(cc2)OCCC1` (stereo unspecified), the TGI in the assay on SF-268 CNS, in the assay with MDA-MB-435, in the assay with K-562 leukemia, with HS 578T breast, in the assay on SK-MEL-5 melanoma and with UACC-62 melanoma was greater than 100 µM each time. Further, the TGI with HOP-62 NSCLC, in the assay on SR leukemia, in the assay with NCI-H226 lung, in the assay with MCF7 breast, in the assay with MOLT-4 leukemia and with A498 renal was greater than 100 µM throughout. Also, the TGI in the assay with PC-3 prostate, in the assay with COLO 205 colon, in the assay with OVCAR-8 ovarian and with SNB-75 CNS was greater than 100 µM each time.
